Assay type in all cases: in vivo, rat
In test [1] the test system is diabetic rats induced by alloxan. In words: Hypoglycemiant activity in diabetic rats induced by alloxan, 15 days oral treatment then follow-up without treatment. The conditions noted are these: for plasmatic levels of glycemia: mean ± EPM. The protocol: The induction of diabetes in animals was done by using alloxan. The animals stayed in fasting for 24 hours before receiving injections of alloxan, so that the animals became more susceptive to diabetes. After a pilot study, the dose of alloxan that was used was 40 mg/kg injected via intravenous in caudal vein. Alloxan was diluted in sodium citrate 0.05M pH 4.5 and the injected volume was 500. During the four hours after the injection, the animals received glucose solution 5% via oral (ad libidum) in order to prevent from seizures and death, what is common in hypoglycemia. On the first two days after diabetes induction, the animals received an insulin injection (100 μl—diluted 1/10) at every 24 hs via subcutaneous (FIG. 3). This procedure guarantees animals to survive during the disease acute phase enabling the study. […] To use in the animals, it was employed corresponding doses, considering animals body mass, which is about 250 mg/kg of hydroalcoholic extract, 55 mL of infusion/rat and 25 mg/kg of RA. The animals received treatment via oral (v.o.), being maintained during a period of 40 days. The first 15 days evaluated by receiving treatment and the subsequent days with no treatment, so that it was possible to evaluate the potential to maintain the glycemic level. The obtained results are represented in the charts from FIGS. 4 to 7. As it can be observed in FIG. 4, the glycemic levels were monitored during 15 alternate days. After 15 days, the treatment was suspended (ST) and it was evaluated during 5, 10, 15 and 40 days. The data represent the mean±EPM, P<0.0001, when compared to the answer obtained for the groups DTE versus CD and CD versus CN (Anova followed by the Turkey-Kramer test). In FIG. 5, glycemic levels were monitored during 15 alternate days. After 15 days, the treatment was suspended (ST) and it was evaluated during 5, 10, 15 and 40 days. The data represent the mean±EPM, P<0.0001, when compared to the answer obtained for the groups DTAR versus CD and CD versus CN (Anova followed by the Turkey-Kramer test). In FIG. 6, glycemic levels were monitored during 15 alternate days. After 15 days, the treatment was suspended (ST) and it was evaluated during 5, 10, 15 and 40 days. The data represent the mean±EPM, P<0.0001, when compared to the answer obtained for the groups DTC versus CD and CD versus CN (Anova followed by the Turkey-Kramer test). In FIG. 7, glycemic levels were monitored during 15 alternate days. After 15 days, the treatment was suspended (ST) and it was evaluated during 5, 10, 15 and 40 days. The data represent the mean±EPM, P<0.0001, when compared to the answer obtained for the groups treated versus CD. (Anova followed by the Turkey-Kramer test).

Test [2] shares this test system. Kind of test: Glycemia monitored for 4 h (60, 120 and 240 minutes) in diabetic rats, chlorpropamide as positive control (FIG. 8). The conditions noted are these: 25 mg/kg v.o., chlorpropamide 40 mg/kg as positive control (FIG. 8). The protocol: FIG. 8—Graphic of the variation in plasmatic levels of glycemia (mg/dL), observed in the different experimental groups: Diabetic treated with hydroalcoholic extract (DTE, 250 mg/kg, v.o.), Diabetic treated with Rosmarinic Acid (DTRA, 25 mg/kg, v.o.), Diabetic treated with drugs in the market (Clorpropamida, 40 mg/kg), Diabetic Control (DC) and Normoglycemic Control (NC).
The induction of diabetes in animals was done by using alloxan. The animals stayed in fasting for 24 hours before receiving injections of alloxan, so that the animals became more susceptive to diabetes. After a pilot study, the dose of alloxan that was used was 40 mg/kg injected via intravenous in caudal vein. Alloxan was diluted in sodium citrate 0.05M pH 4.5 and the injected volume was 500. During the four hours after the injection, the animals received glucose solution 5% via oral (ad libidum) in order to prevent from seizures and death, what is common in hypoglycemia. On the first two days after diabetes induction, the animals received an insulin injection (100 μl—diluted 1/10) at every 24 hs via subcutaneous (FIG. 3). This procedure guarantees animals to survive during the disease acute phase enabling the study.
In FIG. 8, glycemic levels were monitored after 60, 120 and 240 minutes. […]

The next test deals with normal rats. In words: Glycemic level in normal rats.

For `O=C(/C=C/c1ccc(O)c(O)c1)O[C@H](Cc1ccc(O)c(O)c1)C(=O)O` [RA, rosmarinic acid], the “maintenance of the reduced glycemic level (result in words)” value in test [1] (25 mg/kg v.o., 15 days treatment, followed to 40 days without treatment (FIG. 5)) is “in addition of reducing, it kept the glycemic level to the end of the experience”. Besides, the “plasmatic levels of glycemia” value in test [1] (5 ST: 5 days with no treatment after the 15 days of treatment) is recorded as 112.5 ± 5.00 mg/dL; in test [1] (10 ST: 10 days with no treatment after the 15 days of treatment), 101.5 ± 19.13 mg/dL; in test [1] (15 ST: 15 days with no treatment after the 15 days of treatment), 103.5 ± 10.78 mg/dL; in test [1] (40 ST: 40 days with no treatment after the 15 days of treatment) it was 109.3 ± 9.87 mg/dL; in test [1] (evaluated day 0, v.o.: infusion 55 mL/rat, extract 250 mg/kg, RA 25 mg/kg), 362.6 ± 101.52 mg/dL; in test [1] (evaluated day 1 of treatment, v.o.: infusion 55 mL/rat, extract 250 mg/kg, RA 25 mg/kg), 136.6 ± 44.96 mg/dL. Also, the “plasmatic levels of glycemia” value worked out at 114.0 ± 8.46 mg/dL in test [1] (evaluated day 3 of treatment, v.o.: infusion 55 mL/rat, extract 250 mg/kg, RA 25 mg/kg); 71.5 ± 22.66 mg/dL in test [1] (evaluated day 5 of treatment, v.o.: infusion 55 mL/rat, extract 250 mg/kg, RA 25 mg/kg); 124.5 ± 27.75 mg/dL in test [1] (evaluated day 7 of treatment, v.o.: infusion 55 mL/rat, extract 250 mg/kg, RA 25 mg/kg); 100.1 ± 12.31 mg/dL in test [1] (evaluated day 9 of treatment, v.o.: infusion 55 mL/rat, extract 250 mg/kg, RA 25 mg/kg); 108.0 ± 13.31 mg/dL in test [1] (evaluated day 11 of treatment, v.o.: infusion 55 mL/rat, extract 250 mg/kg, RA 25 mg/kg); 92.1 ± 16.89 mg/dL in test [1] (evaluated day 13 of treatment, v.o.: infusion 55 mL/rat, extract 250 mg/kg, RA 25 mg/kg). Moreover, the “plasmatic levels of glycemia” value in test [1] (evaluated day 15 of treatment, v.o.: infusion 55 mL/rat, extract 250 mg/kg, RA 25 mg/kg) was 102.0 ± 12.60 mg/dL. Besides, the “effect on level of plasmatic glycemic in diabetic rats (result in words)” value in test [1] (diabetic rats) was “reducing the level of plasmatic glycemic in diabetic rats”. In addition, the “effectiveness on glycemia monitored for 4 h (result in words)” value in test [2] was “it was verified the effectiveness”. For the same compound, the “effect on glycemic level in normal rats (result in words)” value in the test on normal rats is recorded as “not reducing the glycemic level in normal rats”.

Source of the values: patent publication US20110166226A1, “PROCESS FOR OBTAINING AN EXTRACT RICH IN ROSMARINIC ACID (RA) FROM THE PLANT ORIGANUM VULGARE AND ITS USE FOR THE TREATMENT OF DIABETES” (ACEF S/A, priority 2008, published 2011).
